Measurements as given in US20040006236A1, “Diaminopropionic acid derivatives” (priority 1999, published 2004).

Experiments:
[1] = molecular target: T1, ICAM-1 binding to immobilized Mac-1 (Homo sapiens, UniProt P05107+P11215); assay: Mac-1/ICAM-1 screening assay (solid-phase ELISA); settings: read-out: Mac-1/ICAM-1 Protein-Protein Assay IC50
T1 construct: made in house; host or cells: transfected 293 cells (Mac-1)
Summary of the method: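 Competitive solid-phase ELISA: membrane Mac-1 from transfected 293 cells coated at 3 μg/mL in 20 mM Hepes pH 7.2/0.14 M NaCl/1 mM MnCl2; compounds (0.12 nM-20 μM, 1:4 series) plus 5dICAM-Ig (40 μg/mL, added) 2 h at 37° C. Bound ICAM-Ig detected with HRP anti-human IgG Fc, TMB, A450; IC50 reported.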

[2] = system: cell-surface Mac-1 adhesion to immobilized fibrinogen (HL-60 cells); assay: Mac-1/Fibrinogen cell-based screening assay; parameters: species or system human; settings: Homo sapiens, HL-60, HL-60 cells; read-out: Mac-1/Fgn Cell based Assay IC50
Summary of the method: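 Wells coated with fibrinogen and blocked with PVP. Labeled HL-60 cells (2×10^6 cells/mL in RPMI/0.05% BSA/0.2 mM MnCl2) preincubated with DMSO-diluted compounds for 10 min at 37° C, then left to adhere 30 min at 37° C/5% CO2. Unbound cells washed off with TBS.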

T1 sequence (P05107 23-769, other chains not shown): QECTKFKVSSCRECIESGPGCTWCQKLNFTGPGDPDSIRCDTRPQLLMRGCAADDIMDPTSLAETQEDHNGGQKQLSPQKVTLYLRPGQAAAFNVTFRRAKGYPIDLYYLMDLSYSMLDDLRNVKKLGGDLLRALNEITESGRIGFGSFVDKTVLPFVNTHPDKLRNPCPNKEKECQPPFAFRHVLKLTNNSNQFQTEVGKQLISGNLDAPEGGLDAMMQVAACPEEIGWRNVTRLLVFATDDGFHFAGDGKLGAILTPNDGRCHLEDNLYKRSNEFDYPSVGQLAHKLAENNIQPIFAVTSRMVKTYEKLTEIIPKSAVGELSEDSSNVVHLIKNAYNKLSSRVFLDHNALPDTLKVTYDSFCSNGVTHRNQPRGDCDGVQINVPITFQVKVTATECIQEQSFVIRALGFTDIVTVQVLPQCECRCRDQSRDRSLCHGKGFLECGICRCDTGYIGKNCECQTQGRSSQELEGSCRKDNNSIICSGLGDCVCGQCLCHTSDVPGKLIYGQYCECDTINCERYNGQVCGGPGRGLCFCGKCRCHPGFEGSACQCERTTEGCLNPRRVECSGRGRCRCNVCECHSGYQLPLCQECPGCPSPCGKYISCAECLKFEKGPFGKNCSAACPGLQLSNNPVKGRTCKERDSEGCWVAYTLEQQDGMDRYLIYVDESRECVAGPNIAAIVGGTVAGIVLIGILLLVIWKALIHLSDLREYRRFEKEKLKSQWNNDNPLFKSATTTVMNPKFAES

| SMILES | IC50 [1] [nM] | IC50 [2] [nM] |
| --- | --- | --- |
| O=C(CSc1ccncc1)NC[C@H](NC(=O)c1ccc(C(=O)NCc2cccc(O)c2)cc1Cl)C(=O)O [Example 90] | 29 | 711 |
| NCCCC(=O)NC[C@H](NC(=O)c1ccc(C(=O)NCc2cccc(O)c2)cc1Cl)C(=O)O [Example 261, N-[2-chloro-4-[[[(3-hydroxyphenyl)methyl]amino]-carbonyl]benzoyl]-3-(4-aminobutanoylamino)-L-alanine] | 11 | 46 |
| O=C(NCc1cccc(O)c1)c1ccc(C(=O)N[C@@H](CNC(=O)c2cc(F)cc(F)c2)C(=O)O)c(Cl)c1 [Example 252, N-[2-chloro-4-[[[(3-hydroxyphenyl)methyl]amino]carbonyl]benzoyl]-3-(3,5-difluorobenzoyl)amino-L-alanine] | 6.8 | 19 |
| O=C(NCc1cccc(O)c1)c1cc(Cl)c(C(=O)N[C@@H](CNC(=O)c2ccsc2)C(=O)O)c(Cl)c1 [Example 343, N-[2,6-dichloro-4-[[[(3-hydroxyphenyl)methyl]amino]carbonyl]benzoyl]-3-[(thiophene-3-carbonyl)amino]-L-alanine] | – | 1.7 |
| O=C(NCc1cccc(O)c1)c1ccc(C(=O)N[C@@H](CNC(=O)c2ccc3ncsc3c2)C(=O)O)c(Cl)c1 [Example 177] | 19 | 157 |
| O=C(NCc1cccc2[nH]ccc12)c1ccc(C(=O)N[C@@H](CNC(=O)c2ccccc2)C(=O)O)c(Cl)c1 [Example 314, 3-(benzoylamino)-N-[2-chloro-4-[[(1H-indol-4-ylmethyl)amino]carbonyl]benzoyl]-L-alanine] | 40 | 162 |
| O=C(NCc1cccc(O)c1)c1ccc(C(=O)N[C@@H](CNC(=O)C2CCNCC2)C(=O)O)c(Cl)c1 [Example 262] | 15 | 49 |
| O=C(NCc1cccc(O)c1)c1ccc(C(=O)N[C@@H](CNC(=O)c2ccno2)C(=O)O)c(Cl)c1 [Example 256] | 14 | 24 |
| Cc1cc(C(=O)N[C@H](C)c2cccc3ccccc23)cc(C)c1C(=O)N[C@@H](CNC(=O)c1cccs1)C(=O)O [Example 333] | – | 12 |
| Cc1cc(C(=O)NCc2cccc(O)c2)cc(Cl)c1C(=O)N[C@@H](CNC(=O)c1cccs1)C(=O)O [Example 338, N-[2-chloro-4-[[[(3-hydroxyphenyl)methyl]amino]carbonyl]-6-methylbenzoyl]-3-[(thiophene-2-carbonyl)amino]-L-alanine] | 21 | 2.2 |
| Cc1cc(C(=O)NCc2cccc(O)c2)cc(C)c1C(=O)N[C@@H](CNC(=O)c1cccs1)C(=O)O [Example 330] | – | 6 |
| O=C(NCc1cccc(O)c1)c1ccc(C(=O)N[C@@H](CNC(=O)[C@@H]2CCCN2)C(=O)O)c(Cl)c1 [Example 196] | 16 | 63 |
| Cc1cc(C(=O)NCc2cccc(O)c2)cc(C)c1C(=O)N[C@@H](CNC(=O)c1ccsc1)C(=O)O [Example 336, N-[2,6-dimethyl-4-[[[(3-hydroxyphenyl)methyl]amino]carbonyl]benzoyl]-3-(thiophene-3-carbonyl)amino-L-alanine] | – | 5.4 |
| O=C(NCc1cccc(O)c1)c1ccc(C(=O)N[C@@H](CNC(=O)c2cccc3ccccc23)C(=O)O)c(Cl)c1 [Example 178] | 19 | 125 |
| COc1cscc1C(=O)NC[C@H](NC(=O)c1ccc(C(=O)NCc2cccc(O)c2)cc1Cl)C(=O)O [Example 257] | 23 | 87 |
| O=C(NCc1cccc(O)c1)c1cc(Cl)c(C(=O)N[C@@H](CNC(=O)c2cc(F)cc(F)c2)C(=O)O)c(Cl)c1 [Example 344, N-[2,6-dichloro-4-[[[(3-hydroxyphenyl)methyl]amino]carbonyl]benzoyl]-3-[(3,5-difluorobenzoyl)amino]-L-alanine] | – | 4.8 |
| O=C(NCc1cccc(O)c1)c1ccc(C(=O)N[C@@H](CNC(=O)c2c3c(nc4ccccc24)CCCC3)C(=O)O)c(Cl)c1 [Example 190] | 417 | 4850 |
| O=C(NCc1cccc(O)c1)c1ccc(C(=O)N[C@@H](CNC(=O)c2cc3ccccc3s2)C(=O)O)c(Cl)c1 [Example 175] | 23 | 345 |
| Cc1cc(C(=O)NCc2cccc(O)c2)cc(C)c1C(=O)N[C@@H](CNC(=O)c1cc(F)cc(F)c1)C(=O)O [Example 337, N-[2,6-dimethyl-4-[[[(3-hydroxyphenyl)methyl]amino]carbonyl]benzoyl]-3-(3,5-difluorobenzoylamino)-L-alanine] | – | 12 |
| O=C(NCc1cccc(O)c1)c1cc(Cl)c(C(=O)N[C@@H](CNC(=O)c2cc(O)cc(O)c2)C(=O)O)c(Cl)c1 [Example 345, N-[2,6-dichloro-4-[[[(3-hydroxyphenyl)methyl]amino]carbonyl]benzoyl]-3-(3,5-dihydroxybenzoylamino)-L-alanine] | – | 0.3 |
| O=C(NCc1cccc(O)c1)c1ccc(C(=O)N[C@@H](CNC(=O)c2csnn2)C(=O)O)c(Cl)c1 [Example 254] | 11 | 31 |
| O=C(NCc1cccc2[nH]ncc12)c1ccc(C(=O)N[C@@H](CNC(=O)c2cccs2)C(=O)O)c(Cl)c1 [Example 327, N-[2-chloro-4-[[[(1H-indazol-4-yl)methyl]amino]carbonyl]benzoyl]-3-(thiophene-2-carbonyl)amino-L-alanine] | – | 18 |
| O=C(NCc1cccc(O)c1)c1ccc(C(=O)N[C@@H](CNC(=O)c2ccccc2)C(=O)O)c(Cl)c1 [Example 302, 3-benzoylamino-N-[2-chloro-4-[[[(3-hydroxyphenyl)methyl]amino]carbonyl]benzoyl]-L-alanine] | 31 | 74 |
| O=C(NCc1cccc(O)c1)c1ccc(C(=O)N[C@@H](CNC(=O)c2ccoc2)C(=O)O)c(Cl)c1 [Example 259, N-[2-chloro-4-[[[(3-hydroxyphenyl)methyl]amino]carbonyl]benzoyl]-3-(furan-3-carbonyl)amino-L-alanine] | – | 63 |
| Cc1cc(C(=O)NCc2cccc(O)c2)cc(Cl)c1C(=O)N[C@@H](CNC(=O)c1cc(F)cc(F)c1)C(=O)O [Example 340, N-[2-chloro-4-[[[(3-hydroxyphenyl)methyl]amino]carbonyl]-6-methylbenzoyl]-3-[(3,5-difluorobenzoyl)amino]-L-alanine] | – | 6.2 |
| O=C(NCc1cccc(O)c1)c1ccc(C(=O)N[C@@H](CNC(=O)c2ccc3ccccc3c2)C(=O)O)c(Cl)c1 [Example 179] | 31 | 314 |
| O=C(NCc1cccc(O)c1)c1cc(Cl)c(C(=O)N[C@@H](CNC(=O)c2cccs2)C(=O)O)c(Cl)c1 [Example 342, N-[2,6-dichloro-4-[[[(3-hydroxyphenyl)methyl]amino]carbonyl]benzoyl]-3-[(thiophene-2-carbonyl)amino]-L-alanine] | – | 1 |
| O=C(NCc1cccc(O)c1)c1ccc(C(=O)N[C@@H](CNC(=O)c2cccs2)C(=O)O)c(Cl)c1 [Example 303, N-[2-chloro-4-[[[(3-hydroxyphenyl)methyl]amino]carbonyl]benzoyl]-3-(thiophene-2-carbonyl)amino-L-alanine] | 6.4 | 8.7 |
